Test results as given in patent US20130345215A1, “PYRAZOLOPYRIMIDONE AND PYRAZOLOPYRIDONE INHIBITORS OF TANKYRASE” (Genentech, Inc., priority 2012, published 2013).

The compounds below were run on Wnt stimulated TCF transcriptional activity, HEK293-TS 112 TCF reporter cell line (assay: Tankyrase 1 Assay (Example 119): Wnt3A-stimulated TOPbrite TCF luciferase reporter). Conditions: Compounds I-59 to I-144, procedure in Example 119 (0.5 ug/mL Wnt3A, 16 hours); read-out: TNKS1 (IC50).
Assay type: cell-based
Procedure: Inhibition of the Wnt stimulated TCF transcriptional activity by tankyrase inhibitors was determined utilizing a HEK293-TS 112 TCF reporter cell line. A Wnt-responsive luciferase reporter named TOPbrite was constructed by cloning the enhancer element of Super8xTOPFlash containing eight TCF/LEF binding sites into the pGL4.28 vector (Promega) upstream of the minimal promoter element, and selecting for hygromycin B resistance (50 μg/ml). Cells were seeded into 384-well plates in the presence of 0.5 ug/mL of Wnt3A at a density of 20,000 cells per well in 25 ul of F:12 DMEM media supplemented with 10% FBS and 2 mM Glutamax. Cells seeded without the addition of Wnt3A were used as background signal. Compounds of various concentrations were added to cells and incubated at 37 degrees with 5% CO2 for 16 hours. The assay was terminated with the addition of Promega Dual Glo kit per manufacturer's instructions. A ratio of TOPbrite Firefly Luciferase and SV40 Renillla Luciferase was calculated and the background from the neutral wells was subtracted yielding the final normalized measurement of TCF transcriptional activity. Compound IC50s were determined by four-parameter curve fitting using GeneData software.

Compound	IC50 [µM]
COCCO[C@H]1CC[C@@H](N2CCN(c3nc4c(cnn4C)c(=O)[nH]3)CC2)CC1 [Compound I-136, 6-[4-[4-(2-methoxyethoxy)cyclohexyl]piperazin-1-yl]-1-methyl-5H-pyrazolo[3 4-d]pyrimidin-4-one]	0.468
Cn1ncc2c(=O)[nH]c(N3CCN(c4c(F)cc(C(O)CO)cc4F)CC3)nc21 (centres unmarked) [Compound I-63, 6-[4-[4-(1 2-dihydroxyethyl)-2 6-difluoro-phenyl]piperazin-1-yl]-1-methyl-5H-pyrazolo[3 4-d]pyrimidin-4-one]	0.0053
Cn1ncc2c(=O)[nH]c(N3CCC(O)(c4ccc(F)cc4)CC3)nc21 [Compound I-93, 6-[4-(4-fluorophenyl)-4-hydroxy-1-piperidyl]-1-methyl-5H-pyrazolo[3 4-d]pyrimidin-4-one]	0.0246
COCCOc1cc(F)c(N2CCN(c3nc4c(cnn4CC(C)O)c(=O)[nH]3)CC2)c(F)c1 (centres unmarked) [Compound I-126, 6-[4-[2 6-difluoro-4-(2-methoxyethoxy)phenyl]piperazin-1-yl]-1-(2-hydroxypropyl)-5H-pyrazolo[3 4-d]pyrimidin-4-one]	0.22
Cn1ncc2c(=O)[nH]c(N3CCN(c4c(F)cc(OC5CCS(=O)(=O)CC5)cc4F)CC3)nc21 [Compound I-70, 6-[4-[4-(1 1-dioxothian-4-yl)oxy-2 6-difluoro-phenyl]piperazin-1-yl]-1-methyl-5H-pyrazolo[3 4-d]pyrimidin-4-one]	0.0079
Cn1ncc2c(=O)[nH]c(N3CCN(c4c(F)cc(O)cc4F)CC3)nc21 [Compound I-73, 6-[4-(2 6-difluoro-4-hydroxy-phenyl)piperazin-1-yl]-1-methyl-5H-pyrazolo[3 4-d]pyrimidin-4-one]	0.0088
Cn1cnnc1C1CCN(c2nc3c(cnn3C)c(=O)[nH]2)CC1 [Compound I-122, 1-methyl-6-[4-(4-methyl-1 2 4-triazol-3-yl)-1-piperidyl]-5H-pyrazolo[3 4-d]pyrimidin-4-one]	0.163
Cn1ncc2c(=O)[nH]c(N3CCC(C(=O)N4CCCC4)CC3)nc21 [Compound I-129, 1-methyl-6-[4-(pyrrolidine-1-carbonyl)-1-piperidyl)-5H-pyrazolo[3 4-d]pyrimidin-4-one]	0.274
Cn1ncc2c(=O)[nH]c(N3CCN(c4c(F)cc(OCCN5CCCCC5)cc4F)CC3)nc21 [Compound I-62, 6-{4-[2,6-Difluoro-4-(2-piperidin-1-yl-ethoxy)-phenyl]-piperazin-1-yl}-1-methyl-1,5-dihydro-pyrazolo[3,4-d]pyrimidin-4-one]	0.005
Cn1ncc2c(=O)[nH]c(-c3ccc(S(C)(=O)=O)cc3)nc21 [Compound I-102, 1-methyl-6-(4-methylsulfonylphenyl)-5H-pyrazolo[3 4-d]pyrimidin-4-one]	0.0479
Cn1cc(N2CCN(c3nc4c(cnn4C)c(=O)[nH]3)CC2)cn1 [Compound I-105, 1-methyl-6-[4-(1-methylpyrazol-4-yl)piperazin-1-yl]-5H-pyrazolo[3 4-d]pyrimidin-4-one]	0.0639
CCCn1ccc(C2(C)CCN(c3nc4c(cnn4C)c(=O)[nH]3)CC2)n1 [Compound I-98, 1-methyl-6-[4-methyl-4-(1-propylpyrazol-3-yl)-1-piperidyl]-5H-pyrazolo[3 4-d]pyrimidin-4-one]	0.0374
COC(C)c1cc(F)c(N2CCN(c3nc4c(cnn4C)c(=O)[nH]3)CC2)c(F)c1 (centres unmarked) [Compound I-71, 6-[4-[2 6-difluoro-4-(1-methoxyethyl)phenyl]piperazin-1-yl]-1-methyl-5H-pyrazolo[3 4-d]pyrimidin-4-one]	0.0083
Cn1ncc2c(=O)[nH]c(N3CCN(c4c(F)cc(OC(CO)CCl)cc4F)CC3)nc21 (centres unmarked) [Compound I-64, 6-[4-[4-[1-(chloromethyl)-2-hydroxy-ethoxy]-2 6-difluoro-phenyl]piperazin-1-yl]-1-methyl-5H-pyrazolo[3 4-d]pyrimidin-4-one]	0.0064
O=c1[nH]c(N2CCN(c3c(F)cc(F)cc3F)CC2)nc2[nH]ncc12 [Compound I-104, 6-[4-(2 4 6-trifluorophenyl)piperazin-1-yl]-1 5-dihydropyrazolo[3 4-d]pyrimidin-4-one]	0.055
Cn1ncc2c(=O)[nH]c(N3CCN(C4CCOCC4)CC3)nc21 [Compound I-130, 1-methyl-6-(4-tetrahydropyran-4-ylpiperazin-1-yl)-5H-pyrazolo[3 4-d]pyrimidin-4-one]	0.315
Cn1ncc2c(=O)[nH]c(N3CCC(S(=O)(=O)CC4CCCCC4)CC3)nc21 [Compound I-135, 6-[4-(cyclohexylmethylsulfonyl)-1-piperidyl]-1-methyl-5H-pyrazolo[3 4-d]pyrimidin-4-one]	0.406
Cn1ncc2c(=O)[nH]c(N3CCC(c4[nH]ncc4S(C)(=O)=O)CC3)nc21 [Compound I-81, 1-methyl-6-[4-(4-methylsulfonyl-1H-pyrazol-5-yl)-1-piperidyl]-5H-pyrazolo[3 4-d]pyrimidin-4-one]	0.0143

Compound	IC50 [µM]
Cn1cncc1C1CCN(c2nc3c(cnn3C)c(=O)[nH]2)CC1 [Compound I-100, 1-methyl-6-[4-(3-methylimidazol-4-yl)-1-piperidyl]-5H-pyrazolo[3 4-d]pyrimidin-4-one]	0.0438
6-[4-(2-fluorophenyl)-1- piperidyl]-1-methyl-5H- pyrazolo[3 4-d]pyrimidin- 4-one [Compound I-88]	0.0193
COCCOc1cc(F)c(C2(O)CCN(c3nc4c(cnn4C)c(=O)[nH]3)CC2)c(F)c1 [Compound I-83, 6-[4-[2 6-difluoro-4-(2-methoxyethoxy)phenyl]-4-hydroxy-1-piperidyl]-1-methyl-5H-pyrazolo[3 4-d]pyrimidin-4-one]	0.0153
Cn1ncc2c(=O)[nH]c(N3CCN(C4CCN(C(=O)OC(C)(C)C)CC4)CC3)nc21 [Compound I-131, tert-butyl 4-[4-(1-methyl-4-oxo-5H-pyrazolo[3 4-d]pyrimidin-6-yl)piperazin-1-yl]piperidine-1-carboxylate]	0.317
Cc1cc(CN2CCN(c3nc4c(cnn4C)c(=O)[nH]3)CC2)no1 [Compound I-140, 1-methyl-6-[4-[(5-methylisoxazol-3-yl)methyl]piperazin-1-yl]-5H-pyrazolo[3 4-d]pyrimidin-4-one]	0.566
Cn1ncc2c(=O)[nH]c(N3CCC(c4ccccn4)CC3)nc21 [Compound I-111, 1-methyl-6-[4-(2-pyridyl)-1-piperidyl]-5H-pyrazolo[3 4-d]pyrimidin-4-one]	0.0838
COCCOc1cc(F)c(N2CCN(c3nc4c(cnn4C4CCOCC4)c(=O)[nH]3)CC2)c(F)c1 [Compound I-123, 6-[4-[2 6-difluoro-4-(2-methoxyethoxy)phenyl]piperazin-1-yl]-1-tetrahydropyran-4-yl-5H-pyrazolo[3 4-d]pyrimidin-4-one]	0.168
Cn1cncc1C1CCN(c2nc3c(cnn3C)c(=O)[nH]2)C1 (centres unmarked) [Compound I-114, 1-methyl-6-[3-(3-methylimidazol-4-yl)pyrrolidin-1-yl]-5H-pyrazolo[3 4-d]pyrimidin-4-one]	0.0903
Cn1ncc2c(=O)[nH]c(-c3ccc(S(C)(=O)=O)cn3)nc21 [Compound I-139, 1-methyl-6-(5-methylsulfonyl-2-pyridyl)-5H-pyrazolo[3 4-d]pyrimidin-4-one]	0.547
Cn1ncc2c(=O)[nH]c(N3CCN(c4c(F)cc(OCCOP(=O)(O)O)cc4F)CC3)nc21 [Compound I-75, 2-[3 5-difluoro-4-[4-(1-methyl-4-oxo-5H-pyrazolo[3 4-d]pyrimidin-6-yl)piperazin-1-yl]phenoxy]ethyl dihydrogen phosphate]	0.0096
Cn1ncc2c(=O)[nH]c(N3CCC(c4ccncc4)CC3)nc21 [Compound I-109, 1-methyl-6-[4-(4-pyridyl)-1-piperidyl)-5H-pyrazolo[3 4-d]pyrimidin-4-one]	0.0806
Cn1ncc2c(=O)[nH]c(N3CCN(C4CCCCC4)CC3)nc21 [Compound I-118, 6-(4-cyclohexylpiperazin-1-yl)-1-methyl-5H-pyrazolo[3 4-d]pyrimidin-4-one]	0.122
Cn1ncc2c(=O)[nH]c(N3CCN(CC4CCCCC4)CC3)nc21 [Compound I-110, 6-[4-(cyclohexylmethyl)piperazin-1-yl]-1-methyl-5H-pyrazolo[3 4-d]pyrimidin-4-one]	0.0809
Cn1ncc2c(=O)[nH]c(N3CCN(c4c(F)cc(OC5COC5)cc4F)CC3)nc21 [Compound I-85, 6-[4-[2 6-difluoro-4-(oxetan-3-yloxy)phenyl]piperazin-1-yl]-1-methyl-5H-pyrazolo[3 4-d]pyrimidin-4-one]	0.0171
O=c1[nH]c(N2CCN(c3c(F)cccc3F)CC2)nc2[nH]ncc12 [Compound I-80, 6-[4-(2 6-difluorophenyl)piperazin-1-yl]-1 5-dihydropyrazolo[3 4-d]pyrimidin-4-one]	0.014
Cn1ncc2c(=O)[nH]c(N3CCN(S(C)(=O)=O)CC3)nc21 [Compound I-142, 1-methyl-6-(4-methylsulfonylpiperazin-1-yl)-5H-pyrazolo[3 4-d]pyrimidin-4-one]	0.74
CC(C)n1ccc(C2(C)CCN(c3nc4c(cnn4C)c(=O)[nH]3)CC2)n1 [Compound I-119, 6-[4-(1-isopropylpyrazol-3-yl)-4-methyl-1-piperidyl]-1-methyl-5H-pyrazolo[3 4-d]pyrimidin-4-one]	0.124
